We go through nine compounds from US7858348B2, “N-acetyl-(R,S)-beta-amino acid acylase gene” (Ajinomoto Co., Inc., priority 2006, dated 2010).

What all share (format): biochemical
Assay [1] deals with N-acetyl-(R)-β-amino acid acylase derived from Burkholderia sp. AJ110349 (JM109/ptrp4_3BR cell-free extract). Nature of the assay: Substrate specificity and optical selectivity with cell-free extract of JM109/ptrp4_3BR. As to conditions: for Concentration of acetic acid detected: JM109/ptrp4_3BR 50 mU cell-free extract, 37° C.; for optical selectivity of β-amino acid produced (ee): after reacting for 24 hours; for optical selectivity of β-amino acid produced (ee) / β-amino acid enantiomer detected in the reaction solution: chiral HPLC; for β-amino acid enantiomer detected in the reaction solution: 24 hours (10 minutes for the 3,4-(—O—CH2—O—) substrate). On the procedure: (§1) An Astec Chirobiotec T (0.46 cm in diameter, 25 cm) column was employed. A 90 percent MeOH mobile phase was employed. The temperature was 40° C. and the flow rate was 0.4 mL/minute. Optical selectivity was determined based on comparison with various standard (R) and (S) standard products under UV detection conditions of 205 nm.
(§2) The column employed was comprised of an Inertsil ODS3 (0.46 cm in diameter, 5 cm) made by GL Science and a Chiralpak WH (0.46 cm in diameter, 25 cm) made by Daisel Chemical Industries, arranged consecutively in that order. The mobile phase was 1 mM CuSO4, 10 percent MeOH. The temperature was 50° C. and the flow rate was 1.0 mL/minute. Detection was conducted with a UV detector at 210 nm and optical selectivity was determined by comparison with standard (R) and (S) products.
(§3) JM109/ptrp4—3BR, JM109/pSFN—2BS, and JM109/pSFN—1VR were precultured for 16 hours at 37° C. in LB medium containing 100 mg/L of ampicillin. 1 mL quantity of the cultured bacterial cells was transplanted to 50 mL of TB medium containing 100 mg/L of ampicillin and cultured for 16 hours at 30° C. The bacterial cells obtained were centrifugally separated to concentrate the bacteria cells. The bacterial cells were washed with 50 mM Tris buffer solution (pH 7.6) and the same buffer solution was used to prepare a bacterial cell suspension. Ultrasonic rupturing was employed to rupture the bacterial cells. A supernatant solution obtained by centrifugal separation (15,000 g, 10 minutes, 4° C.) was employed as a cell-free extract, and substrate specificity for the various N-acetyl-(R,S)-β-amino acids described above in Embodiments 2-1 to 9 was examined.
(§4) After adjusting the enzymes by the above methods, their activity was measured. Activity producing 1 μmol of β-Phe per minute from N-acetyl-(R,S)-β-Phe was denoted as 1 U. In the various examination of substrate specificity, 50 mU cell-free extracts were employed. As a negative control, instead of the cell-free medium prepared as set forth above, a 50 mM Tris buffer solution (pH 7.6) that had been reacted with each of the substrates was employed as an “Enzyme-” test zone, and instead of the individual substrates, 50 mM Tris buffer solution (pH 7.6) that had been reacted with each of the cell-free extracts was employed as a “Substrate-” test zone.
(§5) 50 mM Tris-HCl (pH 7.6) and 0.2 percent of various N-acetyl-(R,S)-β-amino acids were reacted at 37° C. for 1 hour or 24 hours, and then processed for 10 minutes at 96° C. to stop the reactions. The quantity of acetic acid produced by the decomposition of acetyl groups was determined by the protocol of an acetic acid kit (Roche).
(§6) After reacting for 24 hours, the samples were analyzed with various chiral resolution columns to determine optical selectivity.
(§7) A 300 μL quantity of culture solution was washed with 50 mM Tris-HCl (pH 7.6), suspended in 300 μL of 50 mM Tris-HCl (pH 7.6), and subjected to ultrasonic rupturing to rupture the bacteria. A supernatant solution obtained by centrifugal separation (15,000 g, 10 minutes, 4° C.) was employed as cell-free extract in the reaction.
(§8) 50 mM Tris-HCl (pH 7.6) and 0.2 percent N-acetyl-(R,S)-3,4-(—O—CH2—O—)-β-phenylalanine were reacted for 10 minutes at 37° C. When 3,4-(—O—CH2—O—)-β-phenylalanine was quantized under the separation conditions of N-acetyl-β-Phe and β-Phe, the activity per mL of cell-free extract was 0.2 U for JM109/ptrp4—3BR, 3.9 U for JM109/pSFN—2BS, and 27.8 U for JM109/pSFN—1VR.
(§9) Various enzymes were prepared from the same bacterial cells and by the same methods as in 12-1, and 50 mU cell-free extracts were employed in the reaction. 50 mM Tris-HCl (pH 7.6) and 1 percent N-acetyl-(R,S)-β-3-Pyr-Ala were reacted for 1 hour at 37° C., after which the reaction was stopped by treatment at 70° C. for 10 minutes. The quantity of acetic acid generated by the decomposition of acetyl groups was determined by the protocol of an acetic acid kit (Roche).

The test system of assay [2] is N-acetyl-(R)-β-amino acid acylase derived from Variovorax sp. AJ110348 (JM109/pSFN_1VR cell-free extract). Nature of the assay: Substrate specificity and optical selectivity with cell-free extract of JM109/pSFN_1VR. As to conditions: for Concentration of acetic acid detected: JM109/pSFN_1VR 50 mU cell-free extract, 37° C.; for optical selectivity of β-amino acid produced (ee): after reacting for 24 hours; for optical selectivity of β-amino acid produced (ee) / β-amino acid enantiomer detected in the reaction solution: chiral HPLC; for β-amino acid enantiomer detected in the reaction solution: 24 hours (10 minutes for the 3,4-(—O—CH2—O—) substrate). As for the experimental part:
as §1, §2, §3, §4, §5, §6, §7, §8, §9

Assay [3] relates to N-acetyl-(S)-β-amino acid acylase derived from Burkholderia sp. AJ110349 (JM109/pSFN_2BS cell-free extract). Nature of the assay: Substrate specificity and optical selectivity with cell-free extract of JM109/pSFN_2BS. As to conditions: for optical selectivity of β-amino acid produced (ee) / β-amino acid enantiomer detected in the reaction solution: JM109/pSFN-2BS, chiral HPLC; for optical selectivity of β-amino acid produced (ee): after reacting for 24 hours; for β-amino acid enantiomer detected in the reaction solution: 24 hours (10 minutes for the 3,4-(—O—CH2—O—) substrate); for Concentration of acetic acid detected: JM109/pSFN_2BS 50 mU cell-free extract, 37° C. On the procedure: as §1, §2, §3, §4, §5, §6, §7, §8, §9

Setting [4] is: 0.2 percent substrate, 24 hours.

On to `CC(=O)NC(CC(=O)O)c1ccc(F)cc1` (racemic) [N-Ac-β-4-F-Phe, N-acetyl-(R,S)-4-fluoro-β-Phe], for which the “Concentration of acetic acid detected” value in assay [1] (0.2 percent substrate, 1 hour) amounted to 4.6 mM; in assay [1] (setting [4]) it was 5.4 mM; in assay [2] (0.2 percent substrate, 1 hour), 4.6 mM; in assay [2] (setting [4]) it was 4.7 mM; in assay [3] (0.2 percent substrate, 1 hour) it was 5.2 mM; in assay [3] (setting [4]) it was 5.1 mM. The “optical selectivity of β-amino acid produced (ee)” value (“optical selectivity” below) is reported as 94 % ee in assay [1] (JM109/ptrp4—3BR), more than 99 % ee in assay [2] (JM109/pSFN—1VR) and more than 99 % ee in assay [3]. The “β-amino acid enantiomer detected in the reaction solution” value (“β-amino acid enantiomer detected” for short) in assay [1] (JM109/ptrp4—3BR) is recorded as “(R)-4-fluoro-β-Phe was detected”; in assay [2] (JM109/pSFN—1VR), “(R)-4-fluoro-β-Phe was detected”; in assay [3], “(S)-4-fluoro-β-Phe was detected”.

Take `CC(=O)NC(C)CC(=O)O` (racemic) [N-Ac-β-Aba, N-acetyl-(R,S)-β-aminobutyric acid]: the “Concentration of acetic acid detected” value in assay [1] (0.2 percent substrate, 1 hour) is given as 0.1 mM; in assay [1] (setting [4]), 0.6 mM; in assay [2] (0.2 percent substrate, 1 hour), 0.0 mM; in assay [2] (setting [4]), 0.1 mM; in assay [3] (0.2 percent substrate, 1 hour), 0.1 mM; in assay [3] (setting [4]) it was 0.3 mM.

For `CC(=O)NC(CC(=O)O)C(C)C` (racemic) [N-Ac-β-Leu, N-acetyl-(R,S)-β-Leu], the “Concentration of acetic acid detected” value in assay [1] (0.2 percent substrate, 1 hour) is on record as 0.2 mM; in assay [1] (setting [4]), 5.6 mM; in assay [2] (0.2 percent substrate, 1 hour), 0.0 mM; in assay [2] (setting [4]), 1.0 mM; in assay [3] (0.2 percent substrate, 1 hour) it was 1.6 mM; in assay [3] (setting [4]), 6.2 mM. Besides, the “optical selectivity” value in assay [1] (JM109/ptrp4—3BR), in assay [2] (JM109/pSFN—1VR) and in assay [3] was more than 99 % ee throughout. The “β-amino acid enantiomer detected” value is given as “(R)-β-Leu was detected” in assay [1] (JM109/ptrp4—3BR), “(R)-β-Leu was detected” in assay [2] (JM109/pSFN—1VR) and “(S)-β-Leu was detected” in assay [3].

Take `CC(=O)NC(CC(=O)O)c1ccccc1` (racemic) [N-Ac-β-Phe, N-acetyl-(R,S)-β-Phe]: the “Concentration of acetic acid detected” value was determined as 5.0 mM in assay [1] (0.2 percent substrate, 1 hour); 5.2 mM in assay [2] (0.2 percent substrate, 1 hour); 5.3 mM in assay [3] (0.2 percent substrate, 1 hour).

Turning to `CC(=O)NC(CC(=O)O)c1ccc(O)cc1` (racemic) [N-Ac-β-Tyr, N-acetyl-(R,S)-β-Tyr], the “Concentration of acetic acid detected” value in assay [1] (0.2 percent substrate, 1 hour) amounted to 4.5 mM; in assay [1] (setting [4]), 4.9 mM; in assay [2] (0.2 percent substrate, 1 hour), 5.1 mM; in assay [2] (setting [4]) it was 4.6 mM; in assay [3] (0.2 percent substrate, 1 hour), 5.2 mM; in assay [3] (setting [4]), 5.2 mM. Besides, the “optical selectivity” value in assay [1] (JM109/ptrp4—3BR) was 61 % ee; in assay [2] (JM109/pSFN—1VR) it was more than 99 % ee; in assay [3], more than 99 % ee. The “β-amino acid enantiomer detected” value in assay [1] (JM109/ptrp4—3BR) was “(R)-β-Tyr was detected”; in assay [2] (JM109/pSFN—1VR), “(R)-β-Tyr was detected”; in assay [3], “(S)-β-Tyr was detected”.

On to `CC(=O)NC(CC(=O)O)CC(C)C` (racemic) [N-Ac-β-homoLeu, N-acetyl-(R,S)-β-homoLeu], for which the “Concentration of acetic acid detected” value in assay [1] (0.2 percent substrate, 1 hour) came to 3.0 mM; in assay [1] (setting [4]) it was 7.5 mM; in assay [2] (0.2 percent substrate, 1 hour), 0.0 mM; in assay [2] (setting [4]) it was 0.6 mM; in assay [3] (0.2 percent substrate, 1 hour) it was 1.2 mM; in assay [3] (setting [4]) it was 5.4 mM. The “optical selectivity” value was 69 % ee in assay [1] (JM109/ptrp4—3BR), more than 99 % ee in assay [2] (JM109/pSFN—1VR) and more than 99 % ee in assay [3]. For the same compound, the “β-amino acid enantiomer detected” value in assay [1] (JM109/ptrp4—3BR) is on record as “(S)-β-homoLeu was detected”; in assay [2] (JM109/pSFN—1VR) it was “(S)-β-homoLeu was detected”; in assay [3], “(R)-β-homoLeu was detected”.

For `CC(=O)NC(CC(=O)O)Cc1ccccc1` (racemic) [N-Ac-β-homoPhe, N-acetyl-(R,S)-β-homoPhe], the “Concentration of acetic acid detected” value amounted to 1.6 mM in assay [1] (0.2 percent substrate, 1 hour); 3.7 mM in assay [1] (setting [4]); 0.1 mM in assay [2] (0.2 percent substrate, 1 hour); 2.6 mM in assay [2] (setting [4]); 0.5 mM in assay [3] (0.2 percent substrate, 1 hour); 4.0 mM in assay [3] (setting [4]). Moreover, the figures for the “optical selectivity” value in assay [1] (JM109/ptrp4—3BR), in assay [2] (JM109/pSFN—1VR) and in assay [3] were 98 % ee, more than 99 % ee and more than 99 % ee, respectively. The “β-amino acid enantiomer detected” value in assay [1] (JM109/ptrp4—3BR) is given as “(S)-β-homoPhe was detected”; in assay [2] (JM109/pSFN—1VR), “(S)-β-homoPhe was detected”; in assay [3] it was “(R)-β-homoPhe was detected”.

Consider `CC(=O)NC(CC(=O)O)c1ccc2c(c1)OCO2` (racemic) [N-acetyl-(R,S)-3,4-(—O—CH2—O—)-β-phenylalanine], for which the “activity per mL of cell-free extract” value came out at 0.2 U in assay [1] (JM109/ptrp4—3BR, 0.2 percent substrate, 10 minutes at 37° C.); 27.8 U in assay [2] (JM109/pSFN—1VR, 0.2 percent substrate, 10 minutes at 37° C.); 3.9 U in assay [3] (JM109/pSFN—2BS, 0.2 percent substrate, 10 minutes at 37° C.). Moreover, the “β-amino acid enantiomer detected” value in assay [1] (JM109/ptrp4—3BR) is “(R)-3,4-(—O—CH2—O—)-β-phenylalanine was detected”; in assay [2] (JM109/pSFN—1VR), “(R)-3,4-(—O—CH2—O—)-β-phenylalanine was detected”; in assay [3], “(S)-3,4-(—O—CH2—O—)-β-phenylalanine was detected”.

Regarding `CC(=O)NC(CC(=O)O)c1cccnc1` (racemic) [N-acetyl-(R,S)-β-3-Pyr-Ala], the acetic acid detected was 3.5 mM in assay [1] (JM109/ptrp4—3BR 50 mU cell-free extract, 1 percent substrate, 1 hour at 37° C.); 0.8 mM in assay [2] (JM109/pSFN—1VR 50 mU cell-free extract, 1 percent substrate, 1 hour at 37° C.); 8.4 mM in assay [3] (JM109/pSFN—2BS 50 mU cell-free extract, 1 percent substrate, 1 hour at 37° C.).
